For assay [1], the target named is Mitogen-activated protein kinase 8 (Homo sapiens) (UniProt P45983). The assay is described as follows: Inhibition of JNK1 at 1 uM relative to control.
In assay [2] the target is Mitogen-activated protein kinase 14 (Homo sapiens) (UniProt Q16539). The assay can be described thus: Inhibition of p38alpha at 1 uM relative to control.
Assay [3] addresses T1, Serine/threonine-protein kinase Nek2 (Homo sapiens) (UniProt P51955).
T1 sequence (whole entry): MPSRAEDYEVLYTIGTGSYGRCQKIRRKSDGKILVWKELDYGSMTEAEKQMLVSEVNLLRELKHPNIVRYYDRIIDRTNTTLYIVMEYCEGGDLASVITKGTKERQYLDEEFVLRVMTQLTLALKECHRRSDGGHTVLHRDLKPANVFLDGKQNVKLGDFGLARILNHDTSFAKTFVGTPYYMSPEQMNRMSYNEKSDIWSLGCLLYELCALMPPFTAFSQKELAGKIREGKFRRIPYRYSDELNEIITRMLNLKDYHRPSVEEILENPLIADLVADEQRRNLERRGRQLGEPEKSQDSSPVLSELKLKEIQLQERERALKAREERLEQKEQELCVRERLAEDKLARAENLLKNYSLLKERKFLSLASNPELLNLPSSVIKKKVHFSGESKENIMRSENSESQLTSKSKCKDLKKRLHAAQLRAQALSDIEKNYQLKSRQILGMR
The assay can be described thus: Inhibition of NEK2a at 1 uM relative to control.

For assay [4], the target named is T2, Eukaryotic elongation factor 2 kinase (Homo sapiens) (UniProt O00418).
T2 sequence (whole entry): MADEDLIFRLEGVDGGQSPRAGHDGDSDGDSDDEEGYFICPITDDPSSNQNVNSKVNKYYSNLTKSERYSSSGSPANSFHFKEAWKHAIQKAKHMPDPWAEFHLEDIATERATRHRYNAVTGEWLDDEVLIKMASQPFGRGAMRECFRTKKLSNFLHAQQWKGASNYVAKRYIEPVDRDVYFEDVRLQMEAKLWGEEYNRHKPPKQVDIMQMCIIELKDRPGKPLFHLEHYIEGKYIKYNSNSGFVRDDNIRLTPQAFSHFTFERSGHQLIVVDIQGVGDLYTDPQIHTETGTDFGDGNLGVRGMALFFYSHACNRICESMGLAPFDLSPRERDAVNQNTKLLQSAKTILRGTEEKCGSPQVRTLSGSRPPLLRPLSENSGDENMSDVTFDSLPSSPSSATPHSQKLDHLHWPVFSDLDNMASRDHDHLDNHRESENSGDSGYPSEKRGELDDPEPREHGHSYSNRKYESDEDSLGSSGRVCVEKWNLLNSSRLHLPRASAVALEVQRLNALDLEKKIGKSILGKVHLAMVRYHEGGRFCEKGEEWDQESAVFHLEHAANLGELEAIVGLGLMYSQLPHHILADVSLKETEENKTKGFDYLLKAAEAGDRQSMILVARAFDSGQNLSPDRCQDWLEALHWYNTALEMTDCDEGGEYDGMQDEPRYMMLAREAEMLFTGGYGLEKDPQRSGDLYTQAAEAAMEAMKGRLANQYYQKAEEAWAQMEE
The assay is described as follows: Inhibition of EFK2 at 1 uM relative to control.

The target of assay [5] is Tyrosine-protein kinase CSK (Homo sapiens) (UniProt P41240). The assay can be described thus: Inhibition of CSK at 1 uM relative to control.
Assay [6] concerns the target MAP kinase-activated protein kinase 3 (Homo sapiens) (UniProt Q16644). The assay is described as follows: Inhibition of MAPKAP-K3 at 1 uM relative to control.
The target in assay [7] is T3, Mitogen-activated protein kinase 15 (Homo sapiens) (UniProt Q8TD08).
T3 sequence (whole entry): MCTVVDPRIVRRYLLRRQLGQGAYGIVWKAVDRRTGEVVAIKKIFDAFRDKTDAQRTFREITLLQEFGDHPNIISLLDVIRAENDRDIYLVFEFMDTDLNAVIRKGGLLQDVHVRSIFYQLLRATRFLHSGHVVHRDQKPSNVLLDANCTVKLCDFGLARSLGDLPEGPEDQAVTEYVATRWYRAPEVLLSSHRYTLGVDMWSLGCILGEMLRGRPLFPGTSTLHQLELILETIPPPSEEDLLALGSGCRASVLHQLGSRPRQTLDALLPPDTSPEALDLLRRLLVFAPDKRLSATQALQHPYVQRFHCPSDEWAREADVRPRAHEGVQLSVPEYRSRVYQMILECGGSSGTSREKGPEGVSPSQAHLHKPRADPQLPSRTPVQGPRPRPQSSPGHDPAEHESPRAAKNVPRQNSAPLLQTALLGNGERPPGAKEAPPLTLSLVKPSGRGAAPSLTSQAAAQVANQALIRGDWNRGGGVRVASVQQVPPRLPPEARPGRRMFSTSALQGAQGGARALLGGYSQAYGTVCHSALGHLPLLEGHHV
The assay is described as follows: Inhibition of ERK8 at 1 uM relative to control.

In assay [8] the target is Serine/threonine-protein kinase PLK1 (Homo sapiens) (UniProt P53350). The assay can be described thus: Inhibition of PLK1 at 1 uM relative to control.
Assay [9] concerns the target Serine/threonine-protein kinase N2 (Homo sapiens) (UniProt Q16513). The assay is described as follows: Inhibition of PRK2 at 1 uM relative to control.
In assay [10] the target is Homeodomain-interacting protein kinase 3 (Homo sapiens) (UniProt Q9H422). The assay is described as follows: Inhibition of HIPK3 at 1 uM relative to control.
Assay [11] has as its target [Pyruvate dehydrogenase (acetyl-transferring)] kinase isozyme 1, mitochondrial (Homo sapiens) (UniProt Q15118). The assay can be described thus: Inhibition of PDK1 at 1 uM relative to control.
Assay [12] addresses Mitogen-activated protein kinase 9 (Homo sapiens) (UniProt P45984). The assay can be described thus: Inhibition of JNK2 at 1 uM relative to control.
The target in assay [13] is Serine/threonine-protein kinase pim-3 (Homo sapiens) (UniProt Q86V86). The assay is described as follows: Inhibition of PIM3 at 1 uM relative to control.
In assay [14] the target is T4, Serine/threonine-protein kinase Sgk1 (Homo sapiens) (UniProt O00141).
T4 sequence (whole entry): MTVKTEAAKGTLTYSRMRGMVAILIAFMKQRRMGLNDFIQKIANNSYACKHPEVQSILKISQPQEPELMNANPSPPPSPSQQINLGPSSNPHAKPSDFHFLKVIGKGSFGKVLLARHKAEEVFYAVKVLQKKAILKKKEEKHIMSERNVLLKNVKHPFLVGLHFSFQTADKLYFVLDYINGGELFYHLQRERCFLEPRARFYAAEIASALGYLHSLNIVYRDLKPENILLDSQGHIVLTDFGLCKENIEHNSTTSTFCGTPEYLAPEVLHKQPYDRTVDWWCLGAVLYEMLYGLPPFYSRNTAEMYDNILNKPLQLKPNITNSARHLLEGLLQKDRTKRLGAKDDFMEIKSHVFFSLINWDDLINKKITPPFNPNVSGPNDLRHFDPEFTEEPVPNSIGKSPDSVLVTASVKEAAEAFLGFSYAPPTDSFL
The assay can be described thus: Inhibition of SGK1 at 1 uM relative to control.

In assay [15] the target is MAP/microtubule affinity-regulating kinase 3 (Homo sapiens) (UniProt P27448). The assay can be described thus: Inhibition of MARK3 at 1 uM relative to control.
Assay [16] is described as follows: Inhibition of p38S at 1 uM relative to control.

Chain of MAP/microtubule affinity-regulating kinase 3 (Homo sapiens) (P27448 whole entry, looked up): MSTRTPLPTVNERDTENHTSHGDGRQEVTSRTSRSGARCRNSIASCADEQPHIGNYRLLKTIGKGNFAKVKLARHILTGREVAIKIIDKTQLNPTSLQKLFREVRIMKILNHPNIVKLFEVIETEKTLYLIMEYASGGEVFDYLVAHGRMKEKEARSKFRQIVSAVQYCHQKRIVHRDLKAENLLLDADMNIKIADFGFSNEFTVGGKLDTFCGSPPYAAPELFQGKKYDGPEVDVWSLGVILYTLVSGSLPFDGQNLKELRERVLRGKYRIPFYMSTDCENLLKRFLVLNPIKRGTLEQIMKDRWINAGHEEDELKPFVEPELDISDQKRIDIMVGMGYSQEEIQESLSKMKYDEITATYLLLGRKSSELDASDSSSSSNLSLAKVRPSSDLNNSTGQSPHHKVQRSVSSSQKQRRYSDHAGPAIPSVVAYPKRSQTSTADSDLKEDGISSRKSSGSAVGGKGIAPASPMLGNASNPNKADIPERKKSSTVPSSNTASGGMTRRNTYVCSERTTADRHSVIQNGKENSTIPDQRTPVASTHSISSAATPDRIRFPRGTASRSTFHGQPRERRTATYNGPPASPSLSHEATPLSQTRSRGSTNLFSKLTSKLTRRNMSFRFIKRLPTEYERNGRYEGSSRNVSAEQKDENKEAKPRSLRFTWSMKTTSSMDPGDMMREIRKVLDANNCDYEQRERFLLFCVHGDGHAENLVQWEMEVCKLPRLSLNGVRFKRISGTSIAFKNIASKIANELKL
Chain of Serine/threonine-protein kinase N2 (Homo sapiens) (Q16513 whole entry, looked up): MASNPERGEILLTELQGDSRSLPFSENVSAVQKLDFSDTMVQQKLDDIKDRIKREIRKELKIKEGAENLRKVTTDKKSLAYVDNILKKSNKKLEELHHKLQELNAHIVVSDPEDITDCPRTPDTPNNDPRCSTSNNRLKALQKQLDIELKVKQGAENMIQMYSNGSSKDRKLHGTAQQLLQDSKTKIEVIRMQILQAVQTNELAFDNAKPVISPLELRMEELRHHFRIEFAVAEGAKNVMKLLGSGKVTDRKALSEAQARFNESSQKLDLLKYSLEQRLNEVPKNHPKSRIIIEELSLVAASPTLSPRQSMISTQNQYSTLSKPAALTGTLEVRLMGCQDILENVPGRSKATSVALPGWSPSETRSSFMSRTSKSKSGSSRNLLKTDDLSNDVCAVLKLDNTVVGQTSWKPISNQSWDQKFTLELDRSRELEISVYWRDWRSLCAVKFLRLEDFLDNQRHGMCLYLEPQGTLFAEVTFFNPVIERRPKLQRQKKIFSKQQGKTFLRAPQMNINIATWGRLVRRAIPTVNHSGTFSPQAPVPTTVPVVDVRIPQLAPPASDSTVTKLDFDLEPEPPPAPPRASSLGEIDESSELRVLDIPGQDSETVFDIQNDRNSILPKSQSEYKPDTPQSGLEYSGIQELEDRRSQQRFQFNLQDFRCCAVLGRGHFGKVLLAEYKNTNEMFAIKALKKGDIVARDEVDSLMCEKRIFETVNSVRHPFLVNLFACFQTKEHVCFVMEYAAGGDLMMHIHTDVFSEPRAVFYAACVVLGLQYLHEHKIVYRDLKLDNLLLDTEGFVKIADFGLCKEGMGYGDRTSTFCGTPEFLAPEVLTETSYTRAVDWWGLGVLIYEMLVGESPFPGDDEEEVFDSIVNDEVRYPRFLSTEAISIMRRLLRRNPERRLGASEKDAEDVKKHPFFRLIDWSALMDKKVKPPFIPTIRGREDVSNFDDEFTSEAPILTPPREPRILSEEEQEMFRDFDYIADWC
Chain of Mitogen-activated protein kinase 14 (Homo sapiens) (Q16539 whole entry): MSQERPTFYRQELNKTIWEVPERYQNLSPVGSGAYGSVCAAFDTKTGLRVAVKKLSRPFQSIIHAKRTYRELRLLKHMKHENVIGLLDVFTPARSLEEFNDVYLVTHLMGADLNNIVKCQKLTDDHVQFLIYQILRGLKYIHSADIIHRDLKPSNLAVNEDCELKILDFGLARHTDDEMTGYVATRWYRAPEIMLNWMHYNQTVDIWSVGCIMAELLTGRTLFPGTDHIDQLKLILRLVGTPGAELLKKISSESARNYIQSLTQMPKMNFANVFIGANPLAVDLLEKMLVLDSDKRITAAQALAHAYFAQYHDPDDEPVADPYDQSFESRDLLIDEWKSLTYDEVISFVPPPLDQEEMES
Chain of Mitogen-activated protein kinase 9 (Homo sapiens) (P45984 whole entry, looked up): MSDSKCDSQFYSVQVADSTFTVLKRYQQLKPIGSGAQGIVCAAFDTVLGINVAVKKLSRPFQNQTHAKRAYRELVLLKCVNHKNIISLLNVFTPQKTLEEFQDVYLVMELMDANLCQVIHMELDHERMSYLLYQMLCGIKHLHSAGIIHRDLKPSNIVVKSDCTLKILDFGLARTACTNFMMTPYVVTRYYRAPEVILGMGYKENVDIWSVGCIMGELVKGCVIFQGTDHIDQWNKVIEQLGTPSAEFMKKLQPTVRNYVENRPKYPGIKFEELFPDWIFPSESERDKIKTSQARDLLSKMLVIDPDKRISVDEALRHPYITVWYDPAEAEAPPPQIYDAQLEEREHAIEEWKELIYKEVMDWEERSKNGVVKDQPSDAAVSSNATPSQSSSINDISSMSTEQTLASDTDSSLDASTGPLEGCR
Chain of Tyrosine-protein kinase CSK (Homo sapiens) (P41240 2-450 limits assumed): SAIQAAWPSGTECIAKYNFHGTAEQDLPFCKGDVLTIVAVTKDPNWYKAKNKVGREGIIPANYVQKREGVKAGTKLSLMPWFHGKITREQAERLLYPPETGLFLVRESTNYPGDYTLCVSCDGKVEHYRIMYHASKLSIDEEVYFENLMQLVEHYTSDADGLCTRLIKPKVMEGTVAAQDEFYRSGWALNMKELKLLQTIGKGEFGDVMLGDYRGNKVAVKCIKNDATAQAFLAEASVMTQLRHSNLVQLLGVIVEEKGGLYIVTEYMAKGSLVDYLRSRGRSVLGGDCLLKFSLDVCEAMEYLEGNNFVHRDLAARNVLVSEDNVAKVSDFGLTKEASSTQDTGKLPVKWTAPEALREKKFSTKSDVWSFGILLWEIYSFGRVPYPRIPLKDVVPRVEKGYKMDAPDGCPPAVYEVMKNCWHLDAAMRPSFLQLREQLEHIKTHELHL
Chain of Serine/threonine-protein kinase PLK1 (Homo sapiens) (P53350 whole entry): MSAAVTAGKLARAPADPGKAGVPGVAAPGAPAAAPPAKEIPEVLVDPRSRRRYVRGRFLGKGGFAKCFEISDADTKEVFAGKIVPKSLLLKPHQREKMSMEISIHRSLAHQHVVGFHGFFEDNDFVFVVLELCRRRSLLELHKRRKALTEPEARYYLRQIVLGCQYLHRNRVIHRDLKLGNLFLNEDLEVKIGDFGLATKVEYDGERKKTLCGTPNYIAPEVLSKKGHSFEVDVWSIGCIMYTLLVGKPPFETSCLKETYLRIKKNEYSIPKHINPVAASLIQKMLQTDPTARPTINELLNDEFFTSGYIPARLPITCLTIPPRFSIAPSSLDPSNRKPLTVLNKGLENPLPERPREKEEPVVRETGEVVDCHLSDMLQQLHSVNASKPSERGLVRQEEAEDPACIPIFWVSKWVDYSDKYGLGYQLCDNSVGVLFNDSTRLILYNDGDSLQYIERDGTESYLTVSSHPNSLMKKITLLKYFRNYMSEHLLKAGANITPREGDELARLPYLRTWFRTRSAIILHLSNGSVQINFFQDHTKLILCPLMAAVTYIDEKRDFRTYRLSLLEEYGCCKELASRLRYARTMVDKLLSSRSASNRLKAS
Chain of Mitogen-activated protein kinase 8 (Homo sapiens) (P45983 whole entry): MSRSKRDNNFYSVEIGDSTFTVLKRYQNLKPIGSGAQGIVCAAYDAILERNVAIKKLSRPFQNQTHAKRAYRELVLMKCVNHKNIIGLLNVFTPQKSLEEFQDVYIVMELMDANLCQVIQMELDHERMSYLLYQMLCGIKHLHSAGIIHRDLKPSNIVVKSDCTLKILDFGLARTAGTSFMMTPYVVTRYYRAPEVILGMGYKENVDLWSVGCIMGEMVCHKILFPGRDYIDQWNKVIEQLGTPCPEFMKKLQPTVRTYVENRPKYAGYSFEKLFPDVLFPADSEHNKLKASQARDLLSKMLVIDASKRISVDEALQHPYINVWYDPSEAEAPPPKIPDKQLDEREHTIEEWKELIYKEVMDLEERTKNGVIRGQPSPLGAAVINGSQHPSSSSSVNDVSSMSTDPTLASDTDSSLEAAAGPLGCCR
Chain of MAP kinase-activated protein kinase 3 (Homo sapiens) (Q16644 whole entry, looked up): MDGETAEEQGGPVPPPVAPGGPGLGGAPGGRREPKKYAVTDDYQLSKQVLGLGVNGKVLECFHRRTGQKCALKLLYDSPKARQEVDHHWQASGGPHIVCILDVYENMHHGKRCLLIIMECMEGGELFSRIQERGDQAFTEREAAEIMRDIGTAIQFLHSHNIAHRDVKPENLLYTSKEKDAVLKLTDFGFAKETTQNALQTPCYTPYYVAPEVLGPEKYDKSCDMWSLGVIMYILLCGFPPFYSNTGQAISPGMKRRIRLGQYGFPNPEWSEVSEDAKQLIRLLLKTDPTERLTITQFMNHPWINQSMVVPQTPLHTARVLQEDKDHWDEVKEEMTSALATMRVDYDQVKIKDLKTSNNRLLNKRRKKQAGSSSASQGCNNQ

As to `O=C(Nc1cc(C(F)(F)F)ccc1F)Nc1ccc(Oc2ccnc3[nH]c(=O)[nH]c23)c2ccccc12`, the residual activity is 75% in assay [1]; 100% in assay [2]; 100% in assay [3]; 75% in assay [4]; < 25% in assay [5]; 100% in [6]. The residual activity in [7] is 100%; in [8], 100%; in assay [9] it was 100%; in assay [10], 100%; in assay [11] it was 100%; in [12], 50%. The residual activity in assay [13] was found to be 100%; in [14], 100%; in [15], 75%; in assay [16], 75%.

Regarding `CC(C)(C)c1cccc(NC(=O)Nc2ccc(Oc3ccnc4[nH]c(=O)[nH]c34)c3ccccc23)c1`, the residual activity in [1] was 75%; in [2], < 25%; in assay [3] it was 75%; in assay [4], 100%; in assay [5], 50%; in [6], 100%. Besides, the residual activity in assay [7] is < 25%; in assay [8] it was 75%; in assay [9] it was 100%; in assay [10], 100%; in assay [11] it was 100%; in assay [12], < 25%. Further, the residual activity came to 75% in assay [13], 100% in assay [14], 100% in assay [15] and 50% in assay [16].

`CSc1cc(Oc2ccnc3[nH]c(=O)[nH]c23)ccc1NC(=O)Nc1cccc(C(F)(F)F)c1`: the residual activity in assay [1] is 100%; in assay [2], < 25%; in assay [3] it was 100%; in assay [4] it was 100%; in assay [5], < 25%; in assay [6], 100%. The residual activity in assay [7], in assay [8], in [9], in assay [10], in assay [11] and in assay [12] was 100% each time. The residual activity in [13] came out at 100%; in assay [14], 100%; in [15], 75%; in assay [16], 50%.

Values taken from ChEMBL document CHEMBL1136991, “Novel potent BRAF inhibitors: toward 1 nM compounds through optimization of the central phenyl ring” (J Med Chem, 2009).
